What was measured:
Assay in all cases: KINOMEscan
Type in all cases: binding
Conditions in all cases: read-out: % Ctrl
[1] = molecular target: T1, p38-gamma (Homo sapiens, UniProt P53778)
T1 construct: purchased DiscoveRx KINOMEscan

[2] = molecular target: T2, PKMYT1 (Homo sapiens, UniProt Q99640)
T2 construct: purchased DiscoveRx KINOMEscan

[3] = molecular target: T3, ABL1(H396P)-nonP (Homo sapiens, UniProt P00519, H396P)
T3 construct: purchased DiscoveRx KINOMEscan

[4] = molecular target: T4, IRAK4 (Homo sapiens, UniProt Q9NWZ3)
T4 construct: purchased DiscoveRx KINOMEscan

[5] = molecular target: T5, HIPK3 (Homo sapiens, UniProt Q9H422)
T5 construct: purchased DiscoveRx KINOMEscan

[6] = molecular target: T6, NEK7 (Homo sapiens, UniProt Q8TDX7)
T6 construct: purchased DiscoveRx KINOMEscan

[7] = molecular target: T7, WNK4 (Homo sapiens, UniProt Q96J92)
T7 construct: purchased DiscoveRx KINOMEscan

[8] = molecular target: T8, TAOK2 (Homo sapiens, UniProt Q9UL54)
T8 construct: purchased DiscoveRx KINOMEscan

[9] = molecular target: T9, WNK2 (Homo sapiens, UniProt Q9Y3S1)
T9 construct: purchased DiscoveRx KINOMEscan

[10] = molecular target: T10, ACVRL1 (Homo sapiens, UniProt P37023)
T10 construct: purchased DiscoveRx KINOMEscan

[11] = molecular target: T11, NDR2 (Homo sapiens, UniProt Q9Y2H1)
T11 construct: purchased DiscoveRx KINOMEscan

[12] = molecular target: T12, p38-beta (Homo sapiens, UniProt Q15759)
T12 construct: purchased DiscoveRx KINOMEscan

[13] = molecular target: T13, ICK (Homo sapiens, UniProt Q9UPZ9)
T13 construct: purchased DiscoveRx KINOMEscan

[14] = molecular target: T14, HCK (Homo sapiens, UniProt P08631)
T14 construct: purchased DiscoveRx KINOMEscan

[15] = molecular target: T15, KIT(V559D,T670I) (Homo sapiens, UniProt P10721, T670I/V559D)
T15 construct: purchased DiscoveRx KINOMEscan

[16] = molecular target: T16, DYRK1B (Homo sapiens, UniProt Q9Y463)
T16 construct: purchased DiscoveRx KINOMEscan

[17] = molecular target: T17, CLK4 (Homo sapiens, UniProt Q9HAZ1)
T17 construct: purchased DiscoveRx KINOMEscan

[18] = molecular target: T18, NLK (Homo sapiens, UniProt Q9UBE8)
T18 construct: purchased DiscoveRx KINOMEscan

[19] = molecular target: T19, DMPK2 (Homo sapiens, UniProt Q6DT37)
T19 construct: purchased DiscoveRx KINOMEscan

[20] = molecular target: T20, RET(V804M) (Homo sapiens, UniProt P07949, V804M)
T20 construct: purchased DiscoveRx KINOMEscan

[21] = molecular target: T21, LTK (Homo sapiens, UniProt P29376)
T21 construct: purchased DiscoveRx KINOMEscan

[22] = molecular target: T22, JAK3(JH1D.-cat.) (Homo sapiens, UniProt P52333)
T22 construct: JAK3(JH1D.-cat.); purchased DiscoveRx KINOMEscan

[23] = molecular target: T23, PKAC-beta (Homo sapiens, UniProt P22694)
T23 construct: purchased DiscoveRx KINOMEscan

[24] = molecular target: T24, PIK3CA(H1047Y) (Homo sapiens, UniProt P42336, H1047Y)
T24 construct: purchased DiscoveRx KINOMEscan

[25] = molecular target: T25, PDGFRB (Homo sapiens, UniProt P09619)
T25 construct: purchased DiscoveRx KINOMEscan

[26] = molecular target: T26, PIK3C2G (Homo sapiens, UniProt O75747)
T26 construct: purchased DiscoveRx KINOMEscan

[27] = molecular target: T27, PIK3CG (Homo sapiens, UniProt P48736)
T27 construct: purchased DiscoveRx KINOMEscan

[28] = molecular target: T28, KIT-autoi. (Homo sapiens, UniProt P10721)
T28 construct: purchased DiscoveRx KINOMEscan

[29] = molecular target: T29, MLK2 (Homo sapiens, UniProt Q02779)
T29 construct: purchased DiscoveRx KINOMEscan

[30] = molecular target: T30, BRAF(V600E) (Homo sapiens, UniProt P15056, V600E)
T30 construct: purchased DiscoveRx KINOMEscan

[31] = molecular target: T31, CDKL5 (Homo sapiens, UniProt O76039)
T31 construct: purchased DiscoveRx KINOMEscan

[32] = molecular target: T32, MYLK2 (Homo sapiens, UniProt Q9H1R3)
T32 construct: purchased DiscoveRx KINOMEscan

[33] = molecular target: T33, YSK1 (Homo sapiens, UniProt O00506)
T33 construct: purchased DiscoveRx KINOMEscan

[34] = molecular target: T34, FGFR2 (Homo sapiens, UniProt P21802)
T34 construct: purchased DiscoveRx KINOMEscan

[35] = molecular target: T35, EPHA6 (Homo sapiens, UniProt Q9UF33)
T35 construct: purchased DiscoveRx KINOMEscan

[36] = molecular target: T36, PRKX (Homo sapiens, UniProt P51817)
T36 construct: purchased DiscoveRx KINOMEscan

[37] = molecular target: T37, TSSK3 (Homo sapiens, UniProt Q96PN8)
T37 construct: purchased DiscoveRx KINOMEscan

[38] = molecular target: T38, EGFR(L858R,T790M) (Homo sapiens, UniProt P00533, L858R/T790M)
T38 construct: purchased DiscoveRx KINOMEscan

[39] = molecular target: T39, DCAMKL1 (Homo sapiens, UniProt O15075)
T39 construct: purchased DiscoveRx KINOMEscan

[40] = molecular target: T40, EPHA3 (Homo sapiens, UniProt P29320)
T40 construct: purchased DiscoveRx KINOMEscan
T40 sequence (P29320 21-983): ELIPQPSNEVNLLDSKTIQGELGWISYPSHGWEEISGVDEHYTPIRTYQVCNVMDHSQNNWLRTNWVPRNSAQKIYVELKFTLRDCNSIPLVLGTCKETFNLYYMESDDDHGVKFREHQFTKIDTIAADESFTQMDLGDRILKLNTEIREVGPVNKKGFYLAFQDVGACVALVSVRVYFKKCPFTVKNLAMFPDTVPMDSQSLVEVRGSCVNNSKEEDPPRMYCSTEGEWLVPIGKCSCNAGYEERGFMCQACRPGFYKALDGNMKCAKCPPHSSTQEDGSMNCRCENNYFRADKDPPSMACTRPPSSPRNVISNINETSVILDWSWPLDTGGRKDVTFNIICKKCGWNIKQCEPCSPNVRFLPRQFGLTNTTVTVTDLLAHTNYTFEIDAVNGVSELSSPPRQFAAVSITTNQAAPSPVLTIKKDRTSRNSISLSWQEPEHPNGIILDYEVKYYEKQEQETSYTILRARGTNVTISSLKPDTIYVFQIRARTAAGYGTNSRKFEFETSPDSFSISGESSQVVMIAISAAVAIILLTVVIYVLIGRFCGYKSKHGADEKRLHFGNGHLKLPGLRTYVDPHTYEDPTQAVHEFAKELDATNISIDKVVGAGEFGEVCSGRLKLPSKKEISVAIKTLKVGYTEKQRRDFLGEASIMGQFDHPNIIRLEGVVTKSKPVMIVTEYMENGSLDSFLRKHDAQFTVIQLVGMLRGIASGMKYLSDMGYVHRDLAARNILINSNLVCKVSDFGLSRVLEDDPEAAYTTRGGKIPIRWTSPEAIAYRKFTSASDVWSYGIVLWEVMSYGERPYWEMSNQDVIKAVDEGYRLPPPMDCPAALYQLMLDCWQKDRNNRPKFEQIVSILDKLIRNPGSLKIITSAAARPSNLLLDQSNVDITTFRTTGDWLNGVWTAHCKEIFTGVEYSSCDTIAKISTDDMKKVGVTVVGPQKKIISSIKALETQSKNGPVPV

T13 sequence (Q9UPZ9 whole entry): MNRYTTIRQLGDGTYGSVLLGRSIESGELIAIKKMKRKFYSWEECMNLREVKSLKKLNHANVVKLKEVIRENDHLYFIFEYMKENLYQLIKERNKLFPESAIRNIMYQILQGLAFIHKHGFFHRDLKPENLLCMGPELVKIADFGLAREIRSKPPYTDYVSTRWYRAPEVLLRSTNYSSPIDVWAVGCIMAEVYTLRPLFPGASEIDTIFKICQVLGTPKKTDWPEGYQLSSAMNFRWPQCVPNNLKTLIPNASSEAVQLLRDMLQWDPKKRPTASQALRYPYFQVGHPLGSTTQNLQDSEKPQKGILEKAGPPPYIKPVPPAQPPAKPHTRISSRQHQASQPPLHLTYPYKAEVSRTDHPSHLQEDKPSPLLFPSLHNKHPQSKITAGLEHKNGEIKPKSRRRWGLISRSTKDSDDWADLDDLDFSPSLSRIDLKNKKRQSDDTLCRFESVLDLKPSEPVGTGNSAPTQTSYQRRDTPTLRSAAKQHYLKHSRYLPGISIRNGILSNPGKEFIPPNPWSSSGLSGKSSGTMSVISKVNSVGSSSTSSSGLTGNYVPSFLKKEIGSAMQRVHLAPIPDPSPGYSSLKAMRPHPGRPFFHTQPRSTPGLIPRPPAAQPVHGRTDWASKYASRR
T5 sequence (Q9H422 whole entry): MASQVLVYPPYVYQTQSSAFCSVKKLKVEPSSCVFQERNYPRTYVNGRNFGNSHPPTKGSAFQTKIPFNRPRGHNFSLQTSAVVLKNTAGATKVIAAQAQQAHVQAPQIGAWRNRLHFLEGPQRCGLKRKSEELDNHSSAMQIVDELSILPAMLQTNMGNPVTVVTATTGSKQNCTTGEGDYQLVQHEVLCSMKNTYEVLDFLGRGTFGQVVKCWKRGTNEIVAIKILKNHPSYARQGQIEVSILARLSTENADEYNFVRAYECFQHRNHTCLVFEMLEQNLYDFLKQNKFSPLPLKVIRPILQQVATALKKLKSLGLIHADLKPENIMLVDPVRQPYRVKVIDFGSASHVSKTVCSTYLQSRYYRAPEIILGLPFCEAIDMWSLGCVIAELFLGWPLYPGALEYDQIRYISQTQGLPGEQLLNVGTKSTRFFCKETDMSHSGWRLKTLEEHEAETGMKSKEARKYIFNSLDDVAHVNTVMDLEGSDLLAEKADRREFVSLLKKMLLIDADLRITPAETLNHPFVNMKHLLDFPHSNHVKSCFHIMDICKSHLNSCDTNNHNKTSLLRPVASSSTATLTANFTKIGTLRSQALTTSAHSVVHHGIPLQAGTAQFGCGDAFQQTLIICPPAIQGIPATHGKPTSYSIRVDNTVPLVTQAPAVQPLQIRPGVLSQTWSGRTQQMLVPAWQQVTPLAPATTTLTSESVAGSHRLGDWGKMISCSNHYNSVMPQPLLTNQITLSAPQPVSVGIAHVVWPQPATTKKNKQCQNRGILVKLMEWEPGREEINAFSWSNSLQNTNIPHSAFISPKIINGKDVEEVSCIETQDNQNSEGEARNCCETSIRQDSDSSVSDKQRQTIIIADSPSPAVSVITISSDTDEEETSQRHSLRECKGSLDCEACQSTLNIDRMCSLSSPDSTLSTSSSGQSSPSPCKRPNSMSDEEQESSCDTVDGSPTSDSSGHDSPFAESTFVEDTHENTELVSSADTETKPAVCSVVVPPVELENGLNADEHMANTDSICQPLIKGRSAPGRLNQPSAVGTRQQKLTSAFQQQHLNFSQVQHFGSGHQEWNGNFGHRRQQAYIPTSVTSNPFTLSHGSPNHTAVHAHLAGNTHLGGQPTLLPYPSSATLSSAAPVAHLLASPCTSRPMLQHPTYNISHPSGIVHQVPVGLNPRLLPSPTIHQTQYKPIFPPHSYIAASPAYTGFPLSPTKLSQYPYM
T39 sequence (O15075 whole entry): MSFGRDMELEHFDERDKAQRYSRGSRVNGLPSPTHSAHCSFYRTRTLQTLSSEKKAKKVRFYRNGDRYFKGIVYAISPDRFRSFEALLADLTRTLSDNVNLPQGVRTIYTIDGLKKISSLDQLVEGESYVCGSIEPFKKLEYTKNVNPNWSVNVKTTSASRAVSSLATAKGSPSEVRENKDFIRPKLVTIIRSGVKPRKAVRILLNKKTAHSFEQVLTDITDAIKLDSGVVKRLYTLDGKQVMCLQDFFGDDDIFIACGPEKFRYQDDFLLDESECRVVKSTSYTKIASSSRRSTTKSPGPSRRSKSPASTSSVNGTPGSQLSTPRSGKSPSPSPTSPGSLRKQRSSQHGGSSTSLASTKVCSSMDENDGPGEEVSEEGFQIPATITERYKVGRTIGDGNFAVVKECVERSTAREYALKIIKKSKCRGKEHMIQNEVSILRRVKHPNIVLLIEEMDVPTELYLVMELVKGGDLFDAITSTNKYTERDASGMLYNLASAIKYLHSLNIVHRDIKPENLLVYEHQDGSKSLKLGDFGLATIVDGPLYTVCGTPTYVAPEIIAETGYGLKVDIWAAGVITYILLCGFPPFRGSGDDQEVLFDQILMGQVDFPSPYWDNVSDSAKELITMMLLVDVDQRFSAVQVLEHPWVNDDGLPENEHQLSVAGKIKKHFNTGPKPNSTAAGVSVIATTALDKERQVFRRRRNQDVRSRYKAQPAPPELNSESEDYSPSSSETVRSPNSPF
T26 sequence (O75747 whole entry): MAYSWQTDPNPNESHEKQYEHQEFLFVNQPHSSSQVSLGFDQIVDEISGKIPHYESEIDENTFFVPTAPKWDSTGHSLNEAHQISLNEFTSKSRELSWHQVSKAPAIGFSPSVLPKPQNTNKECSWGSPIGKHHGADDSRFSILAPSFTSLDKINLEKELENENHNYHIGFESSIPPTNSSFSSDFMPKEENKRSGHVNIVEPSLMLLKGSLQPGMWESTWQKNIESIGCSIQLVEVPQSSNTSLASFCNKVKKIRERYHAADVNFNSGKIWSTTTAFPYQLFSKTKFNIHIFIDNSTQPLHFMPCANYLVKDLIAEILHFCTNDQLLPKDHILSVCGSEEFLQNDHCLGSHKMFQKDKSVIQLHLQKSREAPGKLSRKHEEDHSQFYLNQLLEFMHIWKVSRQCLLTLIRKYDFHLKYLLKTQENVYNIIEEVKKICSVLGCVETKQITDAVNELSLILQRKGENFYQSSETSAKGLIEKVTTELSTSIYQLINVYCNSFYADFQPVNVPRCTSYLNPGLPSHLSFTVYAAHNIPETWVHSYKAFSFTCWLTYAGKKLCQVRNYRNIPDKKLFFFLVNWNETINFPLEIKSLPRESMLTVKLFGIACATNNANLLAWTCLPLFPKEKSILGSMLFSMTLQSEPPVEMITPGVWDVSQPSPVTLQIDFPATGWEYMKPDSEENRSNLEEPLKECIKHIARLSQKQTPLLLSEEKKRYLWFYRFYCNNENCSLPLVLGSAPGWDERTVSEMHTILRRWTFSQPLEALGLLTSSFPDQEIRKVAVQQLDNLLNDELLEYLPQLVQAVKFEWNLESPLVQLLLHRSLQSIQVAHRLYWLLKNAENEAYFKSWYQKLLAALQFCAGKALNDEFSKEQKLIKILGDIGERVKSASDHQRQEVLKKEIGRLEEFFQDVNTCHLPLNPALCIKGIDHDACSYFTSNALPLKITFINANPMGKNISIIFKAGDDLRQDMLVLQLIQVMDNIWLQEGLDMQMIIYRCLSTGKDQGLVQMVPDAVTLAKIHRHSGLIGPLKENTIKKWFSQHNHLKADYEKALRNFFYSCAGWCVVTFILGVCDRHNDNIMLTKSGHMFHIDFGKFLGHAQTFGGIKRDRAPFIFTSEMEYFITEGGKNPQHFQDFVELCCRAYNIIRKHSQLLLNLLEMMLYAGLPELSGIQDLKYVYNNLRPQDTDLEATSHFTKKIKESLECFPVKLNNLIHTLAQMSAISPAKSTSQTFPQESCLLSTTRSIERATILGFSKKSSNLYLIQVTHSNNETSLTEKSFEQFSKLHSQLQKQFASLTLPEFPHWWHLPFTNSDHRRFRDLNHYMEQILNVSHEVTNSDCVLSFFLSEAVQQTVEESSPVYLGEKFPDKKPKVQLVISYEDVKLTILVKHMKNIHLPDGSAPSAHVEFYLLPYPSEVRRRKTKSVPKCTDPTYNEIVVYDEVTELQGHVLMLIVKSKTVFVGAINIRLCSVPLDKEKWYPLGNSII

Molecule CN1CCC(CNc2ccc3ncc(C(=O)Nc4cccc(OC(F)(F)F)c4)n3n2)CC1 [Cpd 2] has a remaining binding at 1 µM [1] of 91%, a remaining binding at 1 µM [2] of 75% and a remaining binding at 1 µM [3] of 93%. For the same molecule, the remaining binding at 1 µM [4] was 100%, the remaining binding at 1 µM [5] was 100% and the remaining binding at 1 µM [6] was 92%. It also gave a remaining binding at 1 µM [7] of 100%, a remaining binding at 1 µM [8] of 100% and a remaining binding at 1 µM [9] of 77%. For the same molecule, the remaining binding at 1 µM [10] was 100%, the remaining binding at 1 µM [11] was 91% and the remaining binding at 1 µM [12] was 100%. It also gave a remaining binding at 1 µM [13] of 93%, a remaining binding at 1 µM [14] of 96% and a remaining binding at 1 µM [15] of 100%. The remaining binding at 1 µM [16] was 92%, the remaining binding at 1 µM [17] was 100% and the remaining binding at 1 µM [18] was 97%. The remaining binding at 1 µM [19] was 97%, the remaining binding at 1 µM [20] was 97% and the remaining binding at 1 µM [21] was 93%. The remaining binding at 1 µM [22] was 100%, the remaining binding at 1 µM [23] was 88% and the remaining binding at 1 µM [24] was 96%. It also gave a remaining binding at 1 µM [25] of 92%, a remaining binding at 1 µM [26] of 59% and a remaining binding at 1 µM [27] of 100%. For the same molecule, the remaining binding at 1 µM [28] was 100%, the remaining binding at 1 µM [29] was 100% and the remaining binding at 1 µM [30] was 100%. It also gave a remaining binding at 1 µM [31] of 100%, a remaining binding at 1 µM [32] of 97% and a remaining binding at 1 µM [33] of 95%. For the same molecule, the remaining binding at 1 µM [34] was 100%, the remaining binding at 1 µM [35] was 86% and the remaining binding at 1 µM [36] was 100%. For the same molecule, the remaining binding at 1 µM [37] was 95%, the remaining binding at 1 µM [38] was 100% and the remaining binding at 1 µM [39] was 85%. For the same molecule, the remaining binding at 1 µM [40] was 92%.

Source: PMC7407272, “Induction of Lysosome Membrane Permeabilization as a Therapeutic Strategy to Target Pancreatic Cancer Stem Cells” (Cancers, 2020)
